Common to all, as to assay: inhibition of tumour cell growth, NCI panel, 48 h
Experiment [1] concerns HCC-2998 colon.
For experiment [2], the system named is HCT-116 colon.
In experiment [3] the test system is HCT-15 colon.
The subject of experiment [4] is HS 578T breast.
Experiment [5] deals with IGROV1 ovarian.
For experiment [6], the system named is MALME-3M melanoma.
The subject of experiment [7] is NCI-H460 lung.
For experiment [8], the system named is OVCAR-4 ovarian.
Experiment [9] has as its system TK-10 renal.
Experiment [10] has as its system UACC-257 melanoma.

“And” between values parts separate entries of the source, which are not always exact repeats. Equal entries are not always repeated.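 Dose response: 5 concentrations. Exposure: 48 h. Format: 96-well plates. Endpoint: linear interpolation; highest concentration if not reached. Here, GI50 denotes the concentration required for 50% inhibition of growth. TGI denotes the concentration required for complete inhibition of growth.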

On to `COc1ccc(C2=Nc3cc(C)c(C)cc3NC(c3ccccc3)C2)cc1` (stereo unspecified), for which the TGI in experiment [1], in experiment [2], in experiment [3], in [4], in experiment [5] and in experiment [6] was > 100 µM in each case. Besides, the TGI in experiment [7], in experiment [8], in [9] and in experiment [10] was > 100 µM throughout.
Take `COc1ccc2c(c1)NC1=C(C(=O)OC1)C2c1cc(OC)c2c(c1)OCO2` (stereo unspecified): the GI50 in experiment [1] is 0.0297 µM; in [2] it was < 0.0182 µM; in [3], 0.0319 µM; in [4], < 0.0189 µM; in experiment [5], 0.0337 µM; in [6], > 100 µM. The GI50 in experiment [7] was 0.0274 µM; in experiment [8], 0.0257 µM; in experiment [9], 60.7 µM. In addition, the TGI in [3], in experiment [4], in [5], in experiment [6], in [7] and in [8] was > 100 µM each time. The TGI in [9] and in [10] was > 100 µM throughout.
On to `N#C/C(=C\c1ccsc1)c1nc2ccccc2o1`, for which the GI50 in experiment [1] was > 100 µM; in experiment [2], 35.7 µM; in [3], > 100 µM; in experiment [4] it was 26 µM; in [5] it was 33.3 µM; in experiment [6] it was 45.2 µM. The GI50 in experiment [7] is > 100 µM; in experiment [8], > 100 µM; in experiment [9] it was 21.1 µM; in experiment [10] it was > 100 µM. Moreover, the TGI in [1] is > 100 µM; in experiment [2], > 100 µM; in [3], > 100 µM; in experiment [4] it was 92.9 µM; in [5], > 100 µM; in experiment [6], > 100 µM. Besides, the TGI was > 100 µM in experiment [7], > 100 µM in experiment [8], 70.5 µM in experiment [9] and > 100 µM in experiment [10].
On to `COc1cccc(N2C(=O)C3c4[nH]c5ccccc5c4C4CCCC4C3C2=O)c1` (stereo unspecified), for which the TGI in experiment [1] was > 10 µM; in [2], 7.16 µM; in experiment [3], > 10 µM; in [4], 8.91 µM; in experiment [5] it was > 10 µM; in [6] it was 8.22 µM. In addition, the TGI in experiment [7] is > 10 µM; in experiment [8] it was 4.76 µM; in experiment [9], > 10 µM; in experiment [10] it was > 10 µM.
In the case of `COc1ccc2c(c1)c(CC(=O)[Se]C)c(C)n2C(=O)c1ccc(Cl)cc1`, the GI50 in experiment [1] is > 0.673 µM; in experiment [2] it was > 0.204 µM; in [3], > 0.506 µM; in experiment [4] it was > 0.297 µM; in experiment [5] it was > 0.199 µM; in experiment [6] it was > 0.346 µM. Further, the GI50 in [7] was > 0.304 µM; in [8], > 0.443 µM; in experiment [9] it was > 0.347 µM; in experiment [10], > 0.352 µM. The TGI in experiment [1] was > 1 µM; in experiment [2], > 0.543 µM; in [3] it was > 1 µM; in [4], > 0.942 µM; in experiment [5] it was > 0.615 µM; in [6], > 0.582 µM. The TGI in experiment [7] is > 1 µM; in experiment [8] it was > 1 µM; in [9], > 0.543 µM; in experiment [10], > 0.689 µM.
For the molecule `NCCCC[C@@H]1NC(=O)[C@H]2CCCN2C(=O)[C@H](Cc2ccccc2)CNC(=O)[C@H](Cc2ccccc2)NC1=O`, the GI50 in experiment [1], in experiment [2], in [3], in experiment [4], in [5] and in experiment [6] was > 37.5 µM throughout. Also, the GI50 in experiment [7], in experiment [8], in experiment [9] and in experiment [10] was > 37.5 µM throughout. Also, the TGI in [1], in experiment [2], in experiment [3], in experiment [4], in experiment [5] and in experiment [6] was > 37.5 µM each time. For the same molecule, the TGI in experiment [7], in experiment [8], in experiment [9] and in [10] was > 37.5 µM in each case.
With `Cc1cccc(/C=N/NC(=S)N2CCCC2)n1`, the GI50 in [1] was 0.102 µM; in experiment [3], 0.586 µM; in experiment [5] it was 0.415 µM; in experiment [6], 1 µM; in experiment [9], 4.82 µM. In addition, the TGI in [1] was 0.92 µM; in experiment [3], > 100 µM; in [4], > 100 µM; in experiment [5] it was > 100 µM; in experiment [6] it was 5.18 µM and 0.783 µM; in [7], > 42 µM. The TGI in experiment [8] was 6.95 µM; in experiment [9], 1.35 µM; in [10] it was 9.51 µM and 12.1 µM.
With `CC(C)(C)C(=O)OCC1C(=O)OCC1C(=O)N1Cc2cc3ccccc3nc2C1` (stereo unspecified), the TGI in experiment [1] came to 29.3 µM; in experiment [2], 5.28 µM; in [3] it was 6.36 µM; in experiment [4], 64.3 µM; in [5], 29.1 µM; in experiment [6], 2.98 µM. In addition, the TGI in experiment [7] was found to be 5.52 µM; in experiment [8] it was 7.67 µM; in experiment [9] it was 6.35 µM; in [10] it was 13.4 µM.
On to `Cc1cc2c(C(C)C)c(O)c(O)cc2c(O)c1-c1c(C)cc2c(C(C)C)c(O)c(O)cc2c1O`, for which the GI50 in [1] is 16.4 µM; in experiment [2], 3.98 µM; in experiment [3] it was 5.31 µM; in experiment [4], 19.3 µM; in [5], 10.1 µM; in experiment [6], 10.9 µM. Besides, the GI50 in experiment [7] is 11.8 µM; in experiment [8], 14 µM; in experiment [9], 13.6 µM; in experiment [10], 26.6 µM. The TGI in [1] was found to be 30 µM; in experiment [2], 14 µM; in [3] it was 20.9 µM; in experiment [4], 47.6 µM; in [5] it was 23.6 µM; in experiment [6], 24.6 µM. The TGI in experiment [7] is 40 µM; in experiment [8] it was 33.8 µM; in experiment [9], 83.4 µM; in experiment [10], 65 µM.

(Values after PubChem BioAssay (NCI).)
